Source: patent US10745382B2 (BRISTOL-MYERS SQUIBB COMPANY, priority 2015, dated 2020)
Like-named read-outs stand apart in the source and are kept apart here.

Target: T1, PD-1/PD-L1 (Homo sapiens, UniProt Q9NZQ7)
T1 construct: made in house; host or cells: HEK293T
Experiment: PD-1/PD-L1 Homogenous Time-Resolved Fluorescence (HTRF) binding assay
Settings: PD-L1-His 10 nM, PD-1-Ig 20 nM, read-out: Range or IC50
How it was run: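 Read-out is time-resolved FRET between europium cryptate-labelled anti-Ig (1 nM final) and APC-labelled anti-His (20 nM final), both dispensed onto the binding mix. Assay buffer: dPBS containing 0.1% bovine serum albumin and 0.05% Tween-20.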

T1 sequence (Q9NZQ7 with tags, fused parts or gaps): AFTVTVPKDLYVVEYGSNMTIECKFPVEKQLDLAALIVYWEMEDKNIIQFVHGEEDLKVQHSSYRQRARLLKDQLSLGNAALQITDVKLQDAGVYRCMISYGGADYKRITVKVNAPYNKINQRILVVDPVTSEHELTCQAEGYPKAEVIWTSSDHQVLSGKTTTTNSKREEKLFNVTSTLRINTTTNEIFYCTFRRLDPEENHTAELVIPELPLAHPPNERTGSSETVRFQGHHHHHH

Cc1c(COc2cc(OCc3cncc(C#N)c3)c(C(C)NC(CO)CO)cc2Cl)cccc1-c1cccc(OCCCN2CC[C@@H](O)C2)c1C (stereo partly drawn) [Example 4137, 5-((4-chloro-2-(1-((1,3-dihydroxypropan-2-yl)amino)ethyl)-5-((3′-(3-((R)-3-hydroxypyrrolidin-1-yl)propoxy)-2,2′-dimethyl-[1,1′-biphenyl]-3-yl)methoxy)phenoxy)methyl)nicotinonitrile]
IC50 (numeric IC50): 3 nM

Cc1c(COc2cc(OCc3cncc(C#N)c3)c(C(C)N3C[C@H](O)C[C@H]3C(=O)O)cc2Cl)cccc1-c1cccc(OCCCN2CC[C@@H](O)C2)c1C (stereo partly drawn) [Example 4138, (2S,4R)-1-(1-(5-chloro-2-((5-cyanopyridin-3-yl)methoxy)-4-((3′-(3-((R)-3-hydroxypyrrolidin-1-yl)propoxy)-2,2′-dimethyl-[1,1′-biphenyl]-3-yl)methoxy)phenyl)ethyl)-4-hydroxypyrrolidine-2-carboxylic Acid]
IC50 (value given as range class): 0.21 to 10 nM

Cc1c(COc2cc(OCc3cncc(C#N)c3)c(C(C)N(C)[C@@H](CO)C(=O)O)cc2Cl)cccc1-c1cccc(OCCCN2CC[C@@H](O)C2)c1C (stereo partly drawn) [Example 4139, N-(1-(5-chloro-2-((5-cyanopyridin-3-yl)methoxy)-4-((3′-(3-((R)-3-hydroxypyrrolidin-1-yl)propoxy)-2,2′-dimethyl-[1,1′-biphenyl]-3-yl)methoxy)phenyl)ethyl)-N-methyl-L-serine]
IC50 (value given as range class): 0.21 to 10 nM

Cc1c(COc2cc(OCc3cncc(C#N)c3)c(C(C)N(C)C(CO)CO)cc2Cl)cccc1-c1cccc(OCCCN2CC[C@@H](O)C2)c1C (stereo partly drawn) [Example 4140, 5-((4-chloro-2-(1-((1,3-dihydroxypropan-2-yl)(methyl)amino)ethyl)-5-((3′-(3-((R)-3-hydroxypyrrolidin-1-yl)propoxy)-2,2′-dimethyl-[1,1′-biphenyl]-3-yl)methoxy)phenoxy)methyl)nicotinonitrile]
IC50 (value given as range class): 0.21 to 10 nM

Cc1c(COc2cc(OCc3cncc(C#N)c3)c(C(C)N[C@@H](CO)C(=O)O)cc2Cl)cccc1-c1cccc(OCCCN2CC[C@@H](O)C2)c1C (stereo partly drawn) [Example 4141, (1-(5-chloro-2-((5-cyanopyridin-3-yl)methoxy)-4-((3′-(3-((R)-3-hydroxypyrrolidin-1-yl)propoxy)-2,2′-dimethyl-[1,1′-biphenyl]-3-yl)methoxy)phenyl)ethyl)-L-serine]
IC50 (value given as range class): 0.21 to 10 nM

Cc1c(COc2cc(OCc3cncc(C#N)c3)c(CNCC(=O)O)cc2Cl)cccc1-c1cccc(OCCCN2CC[C@@H](O)C2)c1C [Example 4147, (R)-(5-chloro-2-((5-cyanopyridin-3-yl)methoxy)-4-((3′-(3-(3-hydroxypyrrolidin-1-yl)propoxy)-2,2′-dimethyl-[1,1′-biphenyl]-3-yl)methoxy)benzyl)glycine]
IC50 (value given as range class): 0.21 to 10 nM

Cc1c(COc2cc(OCc3cncc(C#N)c3)c(CN[C@H](C(=O)O)[C@@H](C)O)cc2Cl)cccc1-c1cccc(OCCCN2CC[C@@H](O)C2)c1C [Example 4148, (5-chloro-2-((5-cyanopyridin-3-yl)methoxy)-4-((3′-(3-((R)-3-hydroxypyrrolidin-1-yl)propoxy)-2,2′-dimethyl-[1,1′-biphenyl]-3-yl)methoxy)benzyl)-L-threonine]
IC50 (value given as range class): 0.21 to 10 nM

Cc1c(COc2cc(OCc3cncc(C#N)c3)c(CNCCC(=O)O)cc2Cl)cccc1-c1cccc(OCCCN2CC[C@@H](O)C2)c1C [Example 4149, (R)-3-((5-chloro-2-((5-cyanopyridin-3-yl)methoxy)-4-((3′-(3-(3-hydroxypyrrolidin-1-yl)propoxy)-2,2′-dimethyl-[1,1′-biphenyl]-3-yl)methoxy)benzyl)amino)propanoic Acid]
IC50 (value given as range class): 0.21 to 10 nM

Cc1c(COc2cc(OCc3cncc(C#N)c3)c(CN[C@H](C(=O)O)C(C)C)cc2Cl)cccc1-c1cccc(OCCCN2CC[C@@H](O)C2)c1C [Example 4150, (5-chloro-2-((5-cyanopyridin-3-yl)methoxy)-4-((3′-(3-((R)-3-hydroxypyrrolidin-1-yl)propoxy)-2,2′-dimethyl-[1,1′-biphenyl]-3-yl)methoxy)benzyl)-L-valine]
IC50 (value given as range class): 0.21 to 10 nM

CCCC[C@H](NCc1cc(Cl)c(OCc2cccc(-c3cccc(OCCCN4CC[C@@H](O)C4)c3C)c2C)cc1OCc1cncc(C#N)c1)C(=O)O [Example 4151, (S)-2-((5-chloro-2-((5-cyanopyridin-3-yl)methoxy)-4-((3′-(3-((R)-3-hydroxypyrrolidin-1-yl)propoxy)-2,2′-dimethyl-[1,1′-biphenyl]-3-yl)methoxy)benzyl)amino)hexanoic Acid]
IC50 (value given as range class): 0.21 to 10 nM

Cc1c(COc2cc(OCc3cncc(C#N)c3)c(CN[C@@H](Cc3ccccc3)C(=O)O)cc2Cl)cccc1-c1cccc(OCCCN2CC[C@@H](O)C2)c1C [Example 4152, (5-chloro-2-((5-cyanopyridin-3-yl)methoxy)-4-((3′-(3-((R)-3-hydroxypyrrolidin-1-yl)propoxy)-2,2′-dimethyl-[1,1′-biphenyl]-3-yl)methoxy)benzyl)-L-phenylalanine]
IC50 (value given as range class): 0.21 to 10 nM

Cc1c(COc2cc(OCc3cncc(C#N)c3)c(CN[C@@H](CC(C)C)C(=O)O)cc2Cl)cccc1-c1cccc(OCCCN2CC[C@@H](O)C2)c1C [Example 4153, (5-chloro-2-((5-cyanopyridin-3-yl)methoxy)-4-((3′-(3-((R)-3-hydroxypyrrolidin-1-yl)propoxy)-2,2′-dimethyl-[1,1′-biphenyl]-3-yl)methoxy)benzyl)-L-leucine]
IC50 (value given as range class): 0.21 to 10 nM

CCC[C@H](NCc1cc(Cl)c(OCc2cccc(-c3cccc(OCCCN4CC[C@@H](O)C4)c3C)c2C)cc1OCc1cncc(C#N)c1)C(=O)O [Example 4154, (S)-2-((5-chloro-2-((5-cyanopyridin-3-yl)methoxy)-4-((3′-(3-((R)-3-hydroxypyrrolidin-1-yl)propoxy)-2,2′-dimethyl-[1,1′-biphenyl]-3-yl)methoxy)benzyl)amino)pentanoic Acid]
IC50 (value given as range class): 0.21 to 10 nM

C=CC[C@H](NCc1cc(Cl)c(OCc2cccc(-c3cccc(OCCCN4CC[C@@H](O)C4)c3C)c2C)cc1OCc1cncc(C#N)c1)C(=O)O [Example 4155, (S)-2-((5-chloro-2-((5-cyanopyridin-3-yl)methoxy)-4-((3′-(3-((R)-3-hydroxypyrrolidin-1-yl)propoxy)-2,2′-dimethyl-[1,1′-biphenyl]-3-yl)methoxy)benzyl)amino)pent-4-enoic Acid]
IC50 (value given as range class): 0.21 to 10 nM

Cc1c(COc2cc(OCc3cncc(C#N)c3)c(CN[C@H](C(=O)O)c3ccccc3)cc2Cl)cccc1-c1cccc(OCCCN2CC[C@@H](O)C2)c1C [Example 4156, (S)-2-((5-chloro-2-((5-cyanopyridin-3-yl)methoxy)-4-((3′-(3-((R)-3-hydroxypyrrolidin-1-yl)propoxy)-2,2′-dimethyl-[1,1′-biphenyl]-3-yl)methoxy)benzyl)amino)-2-phenylacetic Acid]
IC50 (value given as range class): 0.21 to 10 nM

Cc1c(COc2cc(OCc3cncc(C#N)c3)c(CN[C@@H](Cc3ccc(O)cc3)C(=O)O)cc2Cl)cccc1-c1cccc(OCCCN2CC[C@@H](O)C2)c1C [Example 4157, (5-chloro-2-((5-cyanopyridin-3-yl)methoxy)-4-((3′-(3-((R)-3-hydroxypyrrolidin-1-yl)propoxy)-2,2′-dimethyl-[1,1′-biphenyl]-3-yl)methoxy)benzyl)-L-tyrosine]
IC50 (numeric IC50): 3 nM

Cc1c(COc2cc(OCc3cc(Cl)cc(Cl)c3)c(CNC(CO)CO)cc2Cl)cccc1-c1cccc(OCCCN2CC[C@@H](O)C2)c1C [Example 4501, (R)-2-((5-chloro-2-((3,5-dichlorobenzyl)oxy)-4-((3′-(3-(3-hydroxypyrrolidin-1-yl)propoxy)-2,2′-dimethyl-[1,1′-biphenyl]-3-yl)methoxy)benzyl)amino)propane-1,3-diol]
IC50 (value given as range class): 0.21 to 10 nM

Cc1c(COc2cc(OCc3cc(Cl)cc(Cl)c3)c(CNC(CO)(CO)CO)cc2Cl)cccc1-c1cccc(OCCCN2CC[C@@H](O)C2)c1C [Example 4502, (R)-2-((5-chloro-2-((3,5-dichlorobenzyl)oxy)-4-((3′-(3-(3-hydroxypyrrolidin-1-yl)propoxy)-2,2′-dimethyl-[1,1′-biphenyl]-3-yl)methoxy)benzyl)amino)-2-(hydroxymethyl)propane-1,3-diol]
IC50 (value given as range class): 0.21 to 10 nM

Cc1c(COc2cc(OCc3cc(Cl)cc(Cl)c3)c(CN3CCCC[C@H]3C(=O)O)cc2Cl)cccc1-c1cccc(OCCCN2CC[C@@H](O)C2)c1C [Example 4503, (S)-1-(5-chloro-2-((3,5-dichlorobenzyl)oxy)-4-((3′-(3-((R)-3-hydroxypyrrolidin-1-yl)propoxy)-2,2′-dimethyl-[1,1′-biphenyl]-3-yl)methoxy)benzyl)piperidine-2-carboxylic Acid]
IC50 (value given as range class): 0.21 to 10 nM

Cc1c(COc2cc(OCc3cc(Cl)cc(Cl)c3)c(CNC(C)(CO)CO)cc2Cl)cccc1-c1cccc(OCCCN2CC[C@@H](O)C2)c1C [Example 4504, (R)-2-((5-chloro-2-((3,5-dichlorobenzyl)oxy)-4-((3′-(3-(3-hydroxypyrrolidin-1-yl)propoxy)-2,2′-dimethyl-[1,1′-biphenyl]-3-yl)methoxy)benzyl)amino)-2-methylpropane-1,3-diol]
IC50 (value given as range class): 0.21 to 10 nM

Cc1ccc(COc2cc(OCc3cccc(-c4cccc(OCCCN5CC[C@@H](O)C5)c4C)c3C)c(Cl)cc2CNC(CO)CO)cc1C [Example 4505, (R)-2-((5-chloro-2-((3,4-dimethylbenzyl)oxy)-4-((3′-(3-(3-hydroxypyrrolidin-1-yl)propoxy)-2,2′-dimethyl-[1,1′-biphenyl]-3-yl)methoxy)benzyl)amino)propane-1,3-diol]
IC50 (value given as range class): 0.21 to 10 nM

Cc1ccc(COc2cc(OCc3cccc(-c4cccc(OCCCN5CC[C@@H](O)C5)c4C)c3C)c(Cl)cc2CNC(C)(CO)CO)cc1C [Example 4506, (R)-2-((5-chloro-2-((3,4-dimethylbenzyl)oxy)-4-((3′-(3-(3-hydroxypyrrolidin-1-yl)propoxy)-2,2′-dimethyl-[1,1′-biphenyl]-3-yl)methoxy)benzyl)amino)-2-methylpropane-1,3-diol]
IC50 (numeric IC50): 3 nM
